Tests used:
[1] = molecular target: T1, hMMP-1 (Homo sapiens, UniProt P03956); test: MMP inhibition assay (Ki); type: biochemical
T1 construct: purchased R&D Systems (Minneapolis, MN)
T1 sequence (P03956 100-469): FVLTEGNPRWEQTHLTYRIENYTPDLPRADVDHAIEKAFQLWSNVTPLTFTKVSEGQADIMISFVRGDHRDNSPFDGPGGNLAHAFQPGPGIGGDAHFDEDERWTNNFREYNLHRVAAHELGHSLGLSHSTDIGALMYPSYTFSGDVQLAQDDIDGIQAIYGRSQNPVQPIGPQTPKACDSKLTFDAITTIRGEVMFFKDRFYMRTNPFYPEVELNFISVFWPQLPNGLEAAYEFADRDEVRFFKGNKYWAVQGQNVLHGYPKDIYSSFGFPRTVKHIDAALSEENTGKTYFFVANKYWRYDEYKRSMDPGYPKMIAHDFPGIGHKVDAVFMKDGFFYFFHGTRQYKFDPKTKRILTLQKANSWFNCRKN
Experimental: (§1) Human MMP-8, -9, -12 and -13 were produced in the laboratory. Other MMPs were purchased from R&D Systems (Minneapolis, MN). MMP inhibition assays were carried out as previously described. Pro-MMPs were pre-activated by p-aminophenylmercuric acetate following the method described by R&D Systems. Titration experiments were carried out to determine active enzyme concentration for each MMP prior to the assay. For each probe, the percentage of inhibition was determined from five different concentrations in triplicates, chosen to reach a range of 20–80% inhibition. Ki values were determined using the method proposed by Horovitz and Leviski[45].

[2] = molecular target: T2, hMMP-13 (Homo sapiens, UniProt P45452); test: MMP inhibition assay (Ki); type: biochemical
T2 construct: made in house
Experimental: as §1

[3] = molecular target: T3, hMMP-14 (Homo sapiens, UniProt P50281); test: MMP inhibition assay (Ki); type: biochemical
T3 construct: purchased R&D Systems (Minneapolis, MN)
Experimental: as §1

[4] = molecular target: T4, hMMP-2 (Homo sapiens, UniProt P08253); test: MMP inhibition assay (Ki); type: biochemical
T4 construct: purchased R&D Systems (Minneapolis, MN)
T4 sequence (P08253 110-660): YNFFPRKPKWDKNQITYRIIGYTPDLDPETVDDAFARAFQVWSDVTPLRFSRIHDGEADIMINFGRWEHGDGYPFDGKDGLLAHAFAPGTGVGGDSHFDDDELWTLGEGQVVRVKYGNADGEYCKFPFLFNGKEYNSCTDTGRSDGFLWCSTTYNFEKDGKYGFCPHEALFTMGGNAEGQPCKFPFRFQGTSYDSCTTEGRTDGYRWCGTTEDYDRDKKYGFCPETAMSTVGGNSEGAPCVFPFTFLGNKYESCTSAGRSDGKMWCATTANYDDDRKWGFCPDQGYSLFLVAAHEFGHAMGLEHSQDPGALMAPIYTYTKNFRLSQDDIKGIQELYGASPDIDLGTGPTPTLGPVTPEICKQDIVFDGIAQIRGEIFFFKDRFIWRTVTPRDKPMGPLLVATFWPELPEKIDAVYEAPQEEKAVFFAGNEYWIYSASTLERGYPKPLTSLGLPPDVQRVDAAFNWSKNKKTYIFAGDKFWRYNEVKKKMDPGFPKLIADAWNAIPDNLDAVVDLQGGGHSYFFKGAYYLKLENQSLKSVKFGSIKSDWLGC
Experimental: as §1

[5] = molecular target: T5, hMMP-3 (Homo sapiens, UniProt P08254); test: MMP inhibition assay (Ki); type: biochemical
T5 construct: purchased R&D Systems (Minneapolis, MN)
T5 sequence (P08254 100-477): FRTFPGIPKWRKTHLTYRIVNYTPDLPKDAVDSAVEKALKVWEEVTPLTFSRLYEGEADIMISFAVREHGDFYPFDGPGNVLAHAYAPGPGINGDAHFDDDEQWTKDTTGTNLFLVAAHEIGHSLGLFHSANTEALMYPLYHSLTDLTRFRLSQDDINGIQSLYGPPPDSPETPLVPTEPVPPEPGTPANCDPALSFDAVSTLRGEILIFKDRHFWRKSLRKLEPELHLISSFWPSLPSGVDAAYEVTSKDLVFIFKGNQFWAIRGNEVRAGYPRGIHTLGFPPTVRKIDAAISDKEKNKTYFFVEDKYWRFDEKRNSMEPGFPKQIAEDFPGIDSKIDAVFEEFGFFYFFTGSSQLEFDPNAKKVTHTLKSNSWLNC
Experimental: as §1

[6] = molecular target: T6, hMMP-7 (Homo sapiens, UniProt P09237); test: MMP inhibition assay (Ki); type: biochemical
T6 construct: purchased R&D Systems (Minneapolis, MN)
T6 sequence (P09237 95-267): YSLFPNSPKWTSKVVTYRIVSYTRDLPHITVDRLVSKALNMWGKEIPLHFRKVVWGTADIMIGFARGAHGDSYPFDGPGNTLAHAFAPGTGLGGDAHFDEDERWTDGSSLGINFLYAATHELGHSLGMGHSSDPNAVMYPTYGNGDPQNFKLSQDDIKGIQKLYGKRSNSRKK
Experimental: as §1

[7] = molecular target: T7, hMMP-8 (Homo sapiens, UniProt P22894); test: MMP inhibition assay (Ki); type: biochemical
T7 construct: made in house
T7 sequence (P22894 101-467): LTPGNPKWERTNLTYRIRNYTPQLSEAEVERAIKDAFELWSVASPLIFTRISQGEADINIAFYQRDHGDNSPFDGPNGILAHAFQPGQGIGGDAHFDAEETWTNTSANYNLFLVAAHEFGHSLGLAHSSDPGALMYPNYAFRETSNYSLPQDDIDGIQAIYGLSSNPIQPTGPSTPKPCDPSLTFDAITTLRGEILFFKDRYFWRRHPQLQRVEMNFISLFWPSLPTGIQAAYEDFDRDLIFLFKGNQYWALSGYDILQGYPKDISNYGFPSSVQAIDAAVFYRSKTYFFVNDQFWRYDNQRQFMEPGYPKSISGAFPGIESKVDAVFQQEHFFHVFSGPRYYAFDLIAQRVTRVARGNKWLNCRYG
Experimental: as §1

[8] = molecular target: T8, hMMP-9 (Homo sapiens, UniProt P14780); test: MMP inhibition assay (Ki); type: biochemical
T8 construct: made in house
T8 sequence (P14780 94-707): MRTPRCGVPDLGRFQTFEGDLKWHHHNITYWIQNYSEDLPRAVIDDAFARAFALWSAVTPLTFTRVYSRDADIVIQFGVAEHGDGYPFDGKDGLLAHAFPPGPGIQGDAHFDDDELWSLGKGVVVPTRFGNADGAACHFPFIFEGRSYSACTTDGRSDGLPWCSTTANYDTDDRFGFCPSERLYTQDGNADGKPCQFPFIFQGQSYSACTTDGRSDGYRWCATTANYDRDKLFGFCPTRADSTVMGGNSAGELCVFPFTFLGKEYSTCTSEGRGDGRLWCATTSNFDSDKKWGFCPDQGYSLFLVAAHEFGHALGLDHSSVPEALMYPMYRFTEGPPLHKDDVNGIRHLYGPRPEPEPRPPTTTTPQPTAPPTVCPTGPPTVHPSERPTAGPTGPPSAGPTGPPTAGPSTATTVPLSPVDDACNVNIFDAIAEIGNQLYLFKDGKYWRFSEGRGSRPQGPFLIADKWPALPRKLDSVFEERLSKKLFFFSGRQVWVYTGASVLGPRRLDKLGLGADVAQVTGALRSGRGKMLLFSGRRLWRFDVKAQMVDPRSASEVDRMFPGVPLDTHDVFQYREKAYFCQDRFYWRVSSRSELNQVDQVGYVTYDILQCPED
Experimental: as §1

[9] = molecular target: hMMP-12; test: MMP inhibition assay (Ki); type: biochemical, human
Experimental: as §1

[10] = molecular target: TACE (Homo sapiens, UniProt P78536); test: Metalloprotease inhibition assay (Ki); type: biochemical
Sequence of TACE (P78536 215-824): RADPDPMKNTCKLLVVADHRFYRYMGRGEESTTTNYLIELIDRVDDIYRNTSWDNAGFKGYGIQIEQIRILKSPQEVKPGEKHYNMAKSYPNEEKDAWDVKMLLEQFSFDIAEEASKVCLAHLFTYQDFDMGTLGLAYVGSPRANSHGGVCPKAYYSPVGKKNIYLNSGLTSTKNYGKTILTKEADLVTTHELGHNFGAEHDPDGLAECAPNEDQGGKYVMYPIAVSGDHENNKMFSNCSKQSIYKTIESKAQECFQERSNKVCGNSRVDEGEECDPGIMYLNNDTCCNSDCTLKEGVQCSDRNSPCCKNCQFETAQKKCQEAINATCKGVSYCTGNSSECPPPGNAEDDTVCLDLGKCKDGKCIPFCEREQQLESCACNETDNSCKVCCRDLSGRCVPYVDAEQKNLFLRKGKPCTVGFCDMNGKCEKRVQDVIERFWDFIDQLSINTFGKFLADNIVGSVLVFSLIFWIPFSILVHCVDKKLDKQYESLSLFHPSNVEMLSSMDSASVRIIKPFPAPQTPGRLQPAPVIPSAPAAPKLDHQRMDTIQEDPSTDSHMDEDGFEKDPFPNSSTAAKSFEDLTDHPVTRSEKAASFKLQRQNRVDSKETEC

[11] = molecular target: T9, ADAMTS-5 (Homo sapiens, UniProt Q9UNA0); test: Metalloprotease inhibition assay (Ki); type: biochemical
T9 sequence (Q9UNA0 262-930): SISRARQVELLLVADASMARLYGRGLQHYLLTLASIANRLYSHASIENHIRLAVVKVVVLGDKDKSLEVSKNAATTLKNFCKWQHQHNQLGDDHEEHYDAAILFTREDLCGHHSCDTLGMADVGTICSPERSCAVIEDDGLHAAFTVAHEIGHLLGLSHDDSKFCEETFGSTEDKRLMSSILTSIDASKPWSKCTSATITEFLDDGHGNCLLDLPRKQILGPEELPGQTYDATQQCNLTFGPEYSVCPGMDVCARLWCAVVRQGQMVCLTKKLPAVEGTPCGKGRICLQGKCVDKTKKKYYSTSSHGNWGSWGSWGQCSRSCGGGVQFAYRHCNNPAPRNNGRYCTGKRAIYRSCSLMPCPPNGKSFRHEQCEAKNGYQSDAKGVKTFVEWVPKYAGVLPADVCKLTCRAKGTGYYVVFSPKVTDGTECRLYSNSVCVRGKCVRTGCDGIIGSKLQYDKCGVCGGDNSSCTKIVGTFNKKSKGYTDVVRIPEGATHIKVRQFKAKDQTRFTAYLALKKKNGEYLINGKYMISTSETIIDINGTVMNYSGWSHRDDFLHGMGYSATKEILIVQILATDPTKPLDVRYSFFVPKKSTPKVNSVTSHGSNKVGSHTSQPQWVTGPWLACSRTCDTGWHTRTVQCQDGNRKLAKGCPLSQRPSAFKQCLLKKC

[12] = molecular target: T10, MMP-12 (Mus musculus, UniProt P34960); test: Co-immunostaining of carotid artery sections with probe, fluorescence microscopy; set-up: species or system mice
T10 construct: from tissue; host or cells: CaCl2-induced aneurysmal left carotid artery of apoE-deficient mice (in vivo imaging and cryostat sections)
T10 sequence (P34960 110-473): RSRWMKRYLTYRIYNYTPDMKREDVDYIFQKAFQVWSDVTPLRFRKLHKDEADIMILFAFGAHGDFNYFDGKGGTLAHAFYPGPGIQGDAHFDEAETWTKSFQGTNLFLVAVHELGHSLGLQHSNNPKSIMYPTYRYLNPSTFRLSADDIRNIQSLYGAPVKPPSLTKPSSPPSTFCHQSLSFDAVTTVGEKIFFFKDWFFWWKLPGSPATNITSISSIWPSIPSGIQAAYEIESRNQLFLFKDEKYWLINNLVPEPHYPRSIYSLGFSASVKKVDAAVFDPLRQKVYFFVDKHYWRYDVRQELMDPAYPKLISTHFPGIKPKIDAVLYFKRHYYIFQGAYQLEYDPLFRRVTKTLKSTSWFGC
Experimental: Hematoxylin and eosin (H&E) staining and immunostaining of tissues were performed according to standard protocols on 5-μm-thick cryostat sections. For immunostaining, primary antibodies included anti-MMP-12 (sc-30072, Santa Cruz Biotechnology, Dallas, TX), anti-CD68 (AbD serotec, Raleigh, NC), anti-F4/80 (Cedarlane, Burlington, NC) and anti-CD31 (BD Pharmingen, San Jose, CA). Isotype-matched antibodies were used as controls. For co-immunostaining, tissue sections were fixed with acetone, and stained with the antibody followed by probe 2. Nuclei were stained with DAPI using ProLong® Gold Antifade Mountant with DAPI (Molecular Probes, Eugene, OR). The slides were photographed using a Spot RT3 camera (Diagnostic Instruments, Sterling Heights, MI) and a Zeiss Axiophot fluorescence microscope (Carl Zeiss Microscopy GmbH, Jena, Germany).

[13] = molecular target: T11, hMMP-10 (Homo sapiens, UniProt P09238); test: MMP inhibition assay (Ki); type: biochemical
T11 construct: purchased R&D Systems (Minneapolis, MN)
T11 sequence (P09238 99-476): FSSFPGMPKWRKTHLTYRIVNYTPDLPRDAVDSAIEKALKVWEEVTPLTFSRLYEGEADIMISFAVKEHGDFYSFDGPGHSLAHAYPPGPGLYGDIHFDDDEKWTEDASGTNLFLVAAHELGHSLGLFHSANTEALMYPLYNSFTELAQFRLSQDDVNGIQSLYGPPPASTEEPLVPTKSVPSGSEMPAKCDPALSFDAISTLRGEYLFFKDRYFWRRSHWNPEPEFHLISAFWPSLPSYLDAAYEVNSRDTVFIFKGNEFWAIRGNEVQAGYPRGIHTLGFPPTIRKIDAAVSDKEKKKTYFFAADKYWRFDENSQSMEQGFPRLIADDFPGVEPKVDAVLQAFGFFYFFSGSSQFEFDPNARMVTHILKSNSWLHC
Experimental: as §1

[14] = system: MMP-12; set-up: method as in PMID 21212406; conditions: high fat-fed apoE-/- mice ref 3; cited from earlier work

SMILES	Ki [1] [nM]	Ki [2] [nM]	Ki [3] [nM]	Ki [4] [nM]	Ki [5] [nM]	Ki [6] [nM]	Ki [7] [nM]	Ki [8] [nM]	loss of potency (drop in affinity) toward MMP-9 compared with RXP470.1 ([8]; factor relative to RXP470.1)	Ki [9] [nM]	difference in potency towards MMP-12, factor relative to probe 1 ([9]; relative to probe 1)	Ki [10] [nM]	Ki [11] [nM]	probe co-localization with F4/80 positive cells ([12]; aneurysmal carotid artery sections)	probe signal co-localization with MMP-12 ([12]; aneurysmal left carotid artery sections)	Ki [13] [nM]	effect on atherosclerotic plaque [14]	loss of potency toward MMP-10 compared with RXP470.1 ([13]; relative to RXP470.1)	loss of potency toward MMP-13 compared with RXP470.1 ([2]; relative to RXP470.1)
CC[N+]1=C(/C=C/C=C2/N(CCCCCC(=O)NCCCOCCOCCOCCCNC(=O)[C@H](CCC(=O)O)NC(=O)[C@H](CCC(=O)O)NC(=O)[C@H](Cc3cc(-c4ccc(-c5cccc(Cl)c5)cc4)no3)CP(=O)(O)c3ccc(Br)cc3)c3ccc(S(=O)(=O)[O-])cc3C2(C)C)C(C)(C)c2cc(S(=O)(=O)O)ccc21 [probe 2]	7212 ± 66	136 ± 15	802 ± 58	1070 ± 18	188 ± 22	1850 ± 71	1440 ± 35	8760 ± 50	50	6.1 ± 0.1	7	> 10000	> 10000	co-localized	partially co-localized	–	–	–	–
NC(=O)[C@H](CCC(=O)O)NC(=O)[C@H](CCC(=O)O)NC(=O)[C@H](Cc1cc(-c2ccc(-c3cccc(Cl)c3)cc2)no1)CP(=O)(O)c1ccc(Br)cc1 [RXP470.1, reference compound]	> 10000	11 ± 10	150 ± 21	52 ± 4	80 ± 2	518 ± 40	120 ± 40	170 ± 50	–	0.26	–	> 10000	6100 ± 100	–	–	17 ± 20	reduces atherosclerotic plaque area and promotes a fibrous plaque phenotype	–	–
CC[N+]1=C(/C=C/C=C/C=C2/N(CCCCCC(=O)NCCCOCCOCCOCCCNC(=O)[C@H](CCC(=O)O)NC(=O)[C@H](CCC(=O)O)NC(=O)[C@H](Cc3cc(-c4ccc(-c5cccc(Cl)c5)cc4)no3)CP(=O)(O)c3ccc(Br)cc3)c3ccc4c(S(=O)(=O)[O-])cc(S(=O)(=O)O)cc4c3C2(C)C)C(C)(C)c2c1ccc1c(S(=O)(=O)O)cc(S(=O)(=O)O)cc21 [probe 1]	> 10000	74 ± 70	1130 ± 61	973 ± 63	31 ± 2	1623 ± 13	2070 ± 22	4167 ± 41	–	0.9	–	> 10000	1490 ± 129	–	–	71 ± 50	–	less than ten times	less than ten times

From PMC5137160, “Optical imaging of MMP-12 active form in inflammation and aneurysm” (Scientific Reports, 2016)
